# Experimental data reported in patent US11299490B2, “Benzenesulfonamide compounds and their use as therapeutic agents” (Xenon Pharmaceuticals Inc., priority 2016, dated 2022).
# How the values were obtained:
# [1] = target: NaV1.1 (Homo sapiens (Human), UniProt P35498); experiment: Sodium Influx Assay (Flux), NaV1.1; format: cell-based; conditions: Trex HEK293 cells, ANG2 dye; arithmetic mean
# Description: Sodium Influx Assay (In Vitro Assay)
# [2] = target: T1, NaV1.5 (Homo sapiens (Human), UniProt Q14524); experiment: cell-based
# T1 sequence (Q14524 other isoform, or with tags, fused parts or gaps): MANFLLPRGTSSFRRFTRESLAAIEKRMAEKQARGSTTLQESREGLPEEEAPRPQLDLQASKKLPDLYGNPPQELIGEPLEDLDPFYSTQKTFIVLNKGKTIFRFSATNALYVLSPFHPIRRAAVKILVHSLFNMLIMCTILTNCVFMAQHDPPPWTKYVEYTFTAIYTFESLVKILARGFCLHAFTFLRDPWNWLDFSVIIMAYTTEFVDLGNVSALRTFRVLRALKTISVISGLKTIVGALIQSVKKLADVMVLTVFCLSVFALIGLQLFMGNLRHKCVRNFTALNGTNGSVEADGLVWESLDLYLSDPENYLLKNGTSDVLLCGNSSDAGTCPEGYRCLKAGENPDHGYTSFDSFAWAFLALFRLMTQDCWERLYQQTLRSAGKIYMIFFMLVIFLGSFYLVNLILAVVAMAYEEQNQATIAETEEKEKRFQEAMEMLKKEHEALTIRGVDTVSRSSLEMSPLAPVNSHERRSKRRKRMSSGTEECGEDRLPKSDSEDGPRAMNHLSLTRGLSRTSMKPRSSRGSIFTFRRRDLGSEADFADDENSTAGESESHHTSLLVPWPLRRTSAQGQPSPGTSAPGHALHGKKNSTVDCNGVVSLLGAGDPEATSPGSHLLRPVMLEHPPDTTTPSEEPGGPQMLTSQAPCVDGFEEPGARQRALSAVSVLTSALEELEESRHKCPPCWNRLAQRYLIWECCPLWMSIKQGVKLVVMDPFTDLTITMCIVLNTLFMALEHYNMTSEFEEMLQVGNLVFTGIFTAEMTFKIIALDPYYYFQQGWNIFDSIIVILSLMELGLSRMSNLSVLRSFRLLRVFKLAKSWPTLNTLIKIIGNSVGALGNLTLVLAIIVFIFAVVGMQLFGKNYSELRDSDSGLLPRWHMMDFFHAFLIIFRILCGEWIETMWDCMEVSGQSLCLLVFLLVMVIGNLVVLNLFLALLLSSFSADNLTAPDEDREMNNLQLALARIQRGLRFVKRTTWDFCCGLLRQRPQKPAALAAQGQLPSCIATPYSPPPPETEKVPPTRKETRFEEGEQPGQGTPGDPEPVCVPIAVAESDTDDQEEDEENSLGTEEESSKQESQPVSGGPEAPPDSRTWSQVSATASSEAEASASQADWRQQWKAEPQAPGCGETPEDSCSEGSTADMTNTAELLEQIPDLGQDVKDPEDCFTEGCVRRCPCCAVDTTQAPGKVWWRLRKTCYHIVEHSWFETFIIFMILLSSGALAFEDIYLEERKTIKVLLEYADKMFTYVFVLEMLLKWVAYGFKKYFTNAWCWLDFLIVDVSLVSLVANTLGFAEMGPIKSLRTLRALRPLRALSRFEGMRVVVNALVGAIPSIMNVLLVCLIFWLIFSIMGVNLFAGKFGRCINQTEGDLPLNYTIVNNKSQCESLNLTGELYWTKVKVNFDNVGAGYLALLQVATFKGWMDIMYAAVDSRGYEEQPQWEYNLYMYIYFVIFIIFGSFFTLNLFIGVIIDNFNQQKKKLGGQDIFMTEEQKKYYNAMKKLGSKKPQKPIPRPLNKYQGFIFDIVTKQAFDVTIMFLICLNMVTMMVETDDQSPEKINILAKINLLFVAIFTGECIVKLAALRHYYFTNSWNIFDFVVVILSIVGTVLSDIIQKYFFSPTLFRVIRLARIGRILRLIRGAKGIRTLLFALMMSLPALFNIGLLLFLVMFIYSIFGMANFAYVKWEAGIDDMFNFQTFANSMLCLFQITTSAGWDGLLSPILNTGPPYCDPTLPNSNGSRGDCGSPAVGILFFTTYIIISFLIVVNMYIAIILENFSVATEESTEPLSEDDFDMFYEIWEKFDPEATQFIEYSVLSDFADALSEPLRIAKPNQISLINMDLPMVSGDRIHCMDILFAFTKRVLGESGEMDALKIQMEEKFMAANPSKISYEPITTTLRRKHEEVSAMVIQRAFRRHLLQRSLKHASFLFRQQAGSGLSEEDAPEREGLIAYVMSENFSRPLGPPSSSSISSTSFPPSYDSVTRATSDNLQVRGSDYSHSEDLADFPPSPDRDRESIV
# [3] = target: NaV1.6 (Homo sapiens (Human), UniProt Q9UQD0); experiment: Sodium Influx Assay (Flux), NaV1.6
# [4] = target: T1, NaV1.5; experiment: Electrophysiological Assay (EP, patch voltage clamp), NaV1.5; format: cell-based; conditions: HEK-293 cells, whole-cell patch clamp, inactivated state; arithmetic mean
# Method: Sodium currents were measured using the patch clamp technique in the whole-cell configuration using either a PatchXpress automated voltage clamp or manually using an Axopatch 200B (Axon Instruments) or Model 2400 (A-M systems) amplifier. […] In some studies, the external sodium was reduced by equimolar replacement with choline. […] All recordings were performed at ambient temperature in a bath chamber with a volume of 150 μL. Control sodium currents were measured in 0.5% DMSO. Controls and representative compounds of the invention were applied to the recording chamber through a 4-pinch or 8-pinch valve bath perfusion system manufactured by ALA Scientific Instruments.
# Series resistance compensation was applied (60-80%). […] All statistics in this study are given as mean±SD.
# The membrane potential was maintained at a voltage where inactivation of the channel is complete. The voltage is then stepped back to a very negative (Vhold=−150 mV) voltage for 20 ms and then a test pulse is applied to quantify the compound block. […] The percent decrease in sodium current following wash-on of compound was taken as the percent block of sodium channels.
IC50 [1] [µM],IC50 [3] [µM],Compound,IC50 [2] [µM],IC50 [4] [µM]
8.44,6.86,"C[C@@H]1[C@H](N(C)c2cc(F)c(S(=O)(=O)Nc3cscn3)cc2Cl)CCN1Cc1ccccc1 (racemic) [Example 309, rac-4-(((2R,3R)-1-benzyl-2-methylpyrrolidin-3-yl)(methyl)amino)-5-chloro-2-fluoro-N-(thiazol-4-yl)benzenesulfonamide]",7.35,–
–,–,"Cc1c(N(C)[C@H]2CCN(Cc3ccccc3)C2)cc(F)c(S(=O)(=O)Nc2cscn2)c1F [Example 103, (S)-4-((1-benzylpyrrolidin-3-yl)(methyl)amino)-2,6-difluoro-3-methyl-N-(thiazol-4-yl)benzenesulfonamide 2,2,2-trifluoroacetate]",–,> 30
